Experimental data reported in ChEMBL document CHEMBL1201862, “PubChem BioAssay data set” (2004).
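Results reflect a 48-hour exposure of cells in 96-well plates to compound at five concentrations. GI50: concentration for 50% inhibition of growth.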 Calls of active or inactive are those of the source. No stated cut-off is given here; in the data, active = GI50 up to about 1.1 µM and inactive = higher.

Assays:
Assay in all cases: NCI tumour cell line growth inhibition, 48 h
[1] = system: UACC-62
[2] = system: CAKI-1
[3] = system: ACHN
[4] = system: M14
[5] = system: SR
[6] = system: HCC 2998
[7] = system: TK-10
[8] = system: T47D
[9] = system: SK-MEL-28
[10] = system: HOP-92
[11] = system: A498
[12] = system: HOP-62
[13] = system: NCI-H522
[14] = system: SK-OV-3
[15] = system: SF-539
[16] = system: OVCAR-8
[17] = system: SNB-75
[18] = system: RPMI-8226
[19] = system: NCI-H23
[20] = system: HCT-15
[21] = system: EKVX
[22] = system: RXF 393
[23] = system: 786-0
[24] = system: COLO 205
[25] = system: SK-MEL-5
[26] = system: K562
[27] = system: SF-295
[28] = system: Hs-578T
[29] = system: U-251
[30] = system: A549
[31] = system: PC-3
[32] = system: KM12
[33] = system: HCT-116
[34] = system: NCI-H460
[35] = system: MDA-MB-435
[36] = system: NCI-H226
[37] = system: MOLT-4
[38] = system: NCI/ADR-RES
[39] = system: LOX IMVI
[40] = system: HT-29
[41] = system: SN12C
[42] = system: MCF7
[43] = system: SK-MEL-2
[44] = system: OVCAR-4
[45] = system: SNB-19
[46] = system: SW-620
[47] = system: OVCAR-5
[48] = system: IGROV-1
[49] = system: BT-549
[50] = system: UACC-257
[51] = system: Malme-3M
[52] = system: HL-60
[53] = system: CCRF-CEM
[54] = system: OVCAR-3
[55] = system: SF-268
[56] = system: DU-145
[57] = system: MDA-MB-231
[58] = system: UO-31

Compound: CC1CC[C@@]2(OC1)OC1C[C@H]3[C@@H]4CC=C5CC(OC6OC(CO)C(OC7OC(CO)C(O)C(OC8OCC(O)C(O)C8O)C7OC7OC(CO)C(O)C(O)C7O)C(O)C6O)CCC5(C)[C@H]4CCC3(C)C1[C@@H]2C (stereo not given in full)
- GI50 [1]: 21.7 µM (inactive)
- GI50 [2]: 4.95 µM (inactive)
- GI50 [3]: 4.97 µM (inactive)
- GI50 [4]: 11.2 µM (inactive)
- GI50 [5]: 7.23 µM (inactive)
- GI50 [6]: 4.68 µM (inactive)
- GI50 [7]: 7.43 µM (inactive)
- GI50 [8]: 5.71 µM (inactive)
- GI50 [9]: 12.3 µM (inactive)
- GI50 [10]: > 25 µM (inactive)
- GI50 [11]: 4.69 µM (inactive)
- GI50 [12]: 4.09 µM (inactive)
- GI50 [13]: 4.72 µM (inactive)
- GI50 [14]: 6.55 µM (inactive)
- GI50 [15]: 3.6 µM (inactive)
- GI50 [16]: 4.61 µM (inactive)
- GI50 [17]: 7.69 µM (inactive)
- GI50 [18]: 6.81 µM (inactive)
- GI50 [19]: 5.64 µM (inactive)
- GI50 [20]: 14.9 µM
- GI50 [21]: 4.67 µM (inactive)
- GI50 [22]: 4.76 µM (inactive)
- GI50 [23]: 5.9 µM (inactive)
- GI50 [24]: 4.59 µM (inactive)
- GI50 [25]: 4.67 µM (inactive)
- GI50 [26]: 7.23 µM (inactive)
- GI50 [27]: 7.11 µM (inactive)
- GI50 [28]: 4.66 µM (inactive)
- GI50 [29]: 4.68 µM (inactive)
- GI50 [30]: 4.38 µM (inactive)
- GI50 [31]: 4.06 µM (inactive)
- GI50 [32]: 5.32 µM (inactive)
- GI50 [33]: 4.44 µM (inactive)
- GI50 [34]: 5.52 µM (inactive)
- GI50 [35]: 5.78 µM (inactive)
- GI50 [36]: 13.3 µM (inactive)
- GI50 [37]: 9.18 µM (inactive)
- GI50 [38]: 5.97 µM (inactive)
- GI50 [39]: 4.48 µM (inactive)
- GI50 [40]: 5.08 µM (inactive)
- GI50 [41]: 4.58 µM (inactive)
- GI50 [42]: 6.3 µM (inactive)
- GI50 [43]: 11.7 µM (inactive)
- GI50 [44]: 6.58 µM (inactive)
- GI50 [45]: 10.3 µM (inactive)
- GI50 [46]: 3.98 µM (inactive)
- GI50 [47]: 8.51 µM (inactive)
- GI50 [48]: 3.94 µM (inactive)
- GI50 [49]: 4.38 µM (inactive)
- GI50 [50]: 6.47 µM (inactive)
- GI50 [51]: > 25 µM (inactive)
- GI50 [52]: 4.9 µM (inactive)
- GI50 [53]: 5.16 µM (inactive)
- GI50 [54]: 4.93 µM (inactive)
- GI50 [55]: 4.84 µM (inactive)
- GI50 [56]: 4.86 µM (inactive)
- GI50 [57]: 4.66 µM (inactive)

Compound: N=c1oc2ccccc2cc1C(=O)Nc1nccs1
- GI50 [1]: 32.2 µM (inactive)
- GI50 [2]: 13.4 µM (inactive)
- GI50 [3]: 4.54 µM (inactive)
- GI50 [4]: 19 µM (inactive)
- GI50 [5]: 3.24 µM (inactive)
- GI50 [6]: 35.2 µM (inactive)
- GI50 [7]: 7.85 µM (inactive)
- GI50 [8]: 14.1 µM (inactive)
- GI50 [9]: 44.5 µM (inactive)
- GI50 [10]: 32.5 µM (inactive)
- GI50 [11]: 45.7 µM (inactive)
- GI50 [12]: 18.8 µM (inactive)
- GI50 [13]: 0.647 µM (active)
- GI50 [14]: 7.78 µM (inactive)
- GI50 [15]: 5.75 µM (inactive)
- GI50 [16]: 16.8 µM (inactive)
- GI50 [17]: 35.6 µM (inactive)
- GI50 [18]: 14.1 µM (inactive)
- GI50 [19]: 35.8 µM (inactive)
- GI50 [20]: 24.8 µM
- GI50 [21]: 25.1 µM (inactive)
- GI50 [22]: 17.5 µM (inactive)
- GI50 [23]: 2.37 µM (inactive)
- GI50 [24]: 14.6 µM (inactive)
- GI50 [25]: 31 µM (inactive)
- GI50 [26]: 13.9 µM (inactive)
- GI50 [27]: 35.6 µM (inactive)
- GI50 [28]: 46.3 µM (inactive)
- GI50 [29]: 33 µM (inactive)
- GI50 [30]: 44.6 µM (inactive)
- GI50 [31]: 34.5 µM (inactive)
- GI50 [32]: 34.3 µM (inactive)
- GI50 [33]: 26.8 µM (inactive)
- GI50 [34]: 26.7 µM (inactive)
- GI50 [35]: 25.8 µM (inactive)
- GI50 [36]: 19.7 µM (inactive)
- GI50 [37]: 4.8 µM (inactive)
- GI50 [38]: 19.7 µM (inactive)
- GI50 [39]: 2.33 µM (inactive)
- GI50 [40]: 46.6 µM (inactive)
- GI50 [41]: 46.9 µM (inactive)
- GI50 [42]: 5.7 µM (inactive)
- GI50 [43]: 26.9 µM (inactive)
- GI50 [44]: 20.5 µM (inactive)
- GI50 [45]: 52.2 µM (inactive)
- GI50 [46]: 19.9 µM (inactive)
- GI50 [47]: > 69.3 µM (inactive)
- GI50 [48]: 8.26 µM (inactive)
- GI50 [49]: 39.5 µM (inactive)
- GI50 [58]: 31 nM (active)
- GI50 [50]: 27 µM (inactive)
- GI50 [51]: 35.6 µM (inactive)
- GI50 [52]: 0.91 µM (active)
- GI50 [53]: 2.79 µM (inactive)
- GI50 [54]: 9.31 µM (inactive)
- GI50 [55]: 47.3 µM (inactive)
- GI50 [56]: 20.9 µM (inactive)
- GI50 [57]: 33.7 µM (inactive)
